Here are results for 32 compounds from patent US9920010B2, “CXCR7 receptor modulators” (IDORSIA PHARMACEUTICALS LTD, priority 2013, dated 2018).

The target in this assay is T1, CXCR7 (Homo sapiens, UniProt P25106).
T1 construct: host or cells: CHO-K1 (PathHunter CHO-K1 CXCR7 b-arrestin cell line, stably transfected)
The assay can be described thus: PathHunter CHO-K1 CXCR7 b-arrestin recruitment assay (CXCR7 agonistic activity). Particulars: PathHunter CHO-K1 CXCR7 b-arrestin cell line. In kind it is cell-based. In short, it runs like this: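 Stable CHO-K1 line with C-terminally ProLink-tagged CXCR7 and β-arrestin 2–EA fusion; β-arrestin recruitment restores β-gal activity, read by chemiluminescence after 1 h RT detection. Cells seeded 24 h, starved in OPTIMEM 3–4 h, exposed to compounds 90 min at 37 °C in HBSS/HEPES/BSA. Geometric-mean EC50 from repeated measurements.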
For orientation: Recruitment of arrestin is a read-out of receptor activation apart from second messengers.

T1 sequence (P25106 whole entry): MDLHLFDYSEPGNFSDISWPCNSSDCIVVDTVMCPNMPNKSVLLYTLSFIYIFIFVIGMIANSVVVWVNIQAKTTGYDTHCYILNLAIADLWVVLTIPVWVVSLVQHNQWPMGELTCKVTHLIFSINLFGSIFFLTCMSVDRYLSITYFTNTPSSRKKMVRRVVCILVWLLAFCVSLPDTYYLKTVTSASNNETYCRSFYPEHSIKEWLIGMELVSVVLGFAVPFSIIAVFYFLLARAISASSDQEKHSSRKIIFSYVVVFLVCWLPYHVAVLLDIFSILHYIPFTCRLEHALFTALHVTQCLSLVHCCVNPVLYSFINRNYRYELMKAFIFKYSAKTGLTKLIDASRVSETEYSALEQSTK
T1 sequence (P32121 whole entry partner): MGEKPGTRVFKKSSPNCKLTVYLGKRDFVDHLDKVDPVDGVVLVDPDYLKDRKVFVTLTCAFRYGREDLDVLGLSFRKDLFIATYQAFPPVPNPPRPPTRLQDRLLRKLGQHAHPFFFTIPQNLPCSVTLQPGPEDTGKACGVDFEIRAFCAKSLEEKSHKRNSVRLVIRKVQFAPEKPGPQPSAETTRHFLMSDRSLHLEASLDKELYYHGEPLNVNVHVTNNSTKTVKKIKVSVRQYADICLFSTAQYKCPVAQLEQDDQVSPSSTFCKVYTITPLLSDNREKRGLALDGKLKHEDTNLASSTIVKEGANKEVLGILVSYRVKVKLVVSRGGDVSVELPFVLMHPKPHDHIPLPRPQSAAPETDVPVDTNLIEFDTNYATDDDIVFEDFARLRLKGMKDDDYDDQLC

On to `COCCN1CCc2c(cccc2NCC(=O)N(CCC(C)(C)C)Cc2ncccc2C)C1` [Example 298, N-(3,3-Dimethyl-butyl)-2-[2-(2-methoxy-ethyl)-1,2,3,4-tetrahydro-isoquinolin-5-ylamino]-N-(3-methyl-pyridin-2-ylmethyl)-acetamide], for which a half-maximal response (EC50) required 114 nM.
With `CN(CCN(Cc1ccccc1C(F)(F)F)C(=O)CNc1cccc2c1CCN(CC1CC1)C2)C1CCCC1` [compound 451, N-[2-(Cyclopentyl-methyl-amino)-ethyl]-2-(2-cyclopropylmethyl-1,2,3,4-tetrahydro-isoquinolin-5-ylamino)-N-(2-trifluoromethyl-benzyl)-acetamide] the figure was 1 nM.
In the case of `CCN1CCc2cccc(NCC(=O)N(Cc3ccccc3C(F)(F)F)C3CCN(C)CC3)c2C1` [compound 492, 2-(2-Ethyl-1,2,3,4-tetrahydro-isoquinolin-8-ylamino)-N-(1-methyl-piperidin-4-yl)-N-(2-trifluoromethyl-benzyl)-acetamide], the midpoint of the response, the EC50, lay at 41 nM. Compared with the last compound, the EC50 is about 41-fold higher.
For the compound `CNCCN(Cc1ncccc1C(F)(F)F)C(=O)CNc1cccc2c1CCN(C(=O)OCC(C)(C)C)C2` [compound 428], the 50% effective concentration (EC50) (as a rule, the concentration giving half of the maximal effect) stood at 120 nM. This EC50 is about 2.9-fold higher than that of the compound before.
The compound `CCN1CCc2cccc(NCC(=O)N(CCN(C)C)Cc3cccc(C(F)(F)F)c3)c2C1` [compound 505, N-(2-Dimethylamino-ethyl)-2-(2-ethyl-1,2,3,4-tetrahydro-isoquinolin-8-ylamino)-N-(3-trifluoromethyl-benzyl)-acetamide] yielded an EC50 of 42 nM.
The compound `O=C(CNc1cccc2c1CCN(C(=O)[C@@H]1C[C@@H]1F)C2)N(CCN1CCC(F)(F)CC1)Cc1ncccc1Cl` (racemic) [Example 294, rac-N-(3-Chloro-pyridin-2-ylmethyl)-N-[2-(4,4-difluoro-piperidin-1-yl)-ethyl]-2-[2-((1S*,2S*)-2-fluoro-cyclopropanecarbonyl)-1,2,3,4-tetrahydro-isoquinolin-5-ylamino]-acetamide] showed an EC50 of 237 nM.
Compound `O=C(CNc1cccc2c1CCN(CC1CC1)C2)N(CCN1CCC(F)(F)CC1)Cc1ncccc1Cl` [Example 249, N-(3-Chloro-pyridin-2-ylmethyl)-2-(2-cyclopropylmethyl-1,2,3,4-tetrahydro-isoquinolin-5-ylamino)-N-[2-(4,4-difluoro-piperidin-1-yl)-ethyl]-acetamide] displayed an EC50 of 12 nM.
To `CCN1CCc2cccc(NCC(=O)N(CCc3cccc(C(F)(F)F)c3)CCN(C)C)c2C1` [compound 539] belongs 115 nM.
To `CN(C)CCN(Cc1ccccc1)C(=O)CNc1cccc2c1CCN(Cc1ccccc1)C2` [compound 123] belongs 120 nM; to `CN(C)CCN(Cc1ccccc1)C(=O)CNc1cccc2c1CCN(C)C2` [compound 106], 100 nM.
As for `CNCCN(Cc1ncccc1Cl)C(=O)CNc1cccc2c1CCN(CC1CC1)C2` [compound 436, N-(3-Chloro-pyridin-2-ylmethyl)-2-(2-cyclopropylmethyl-1,2,3,4-tetrahydro-isoquinolin-5-ylamino)-N-(2-methylamino-ethyl)-acetamide], the EC50 turned out to be 9 nM.
`CC(C)(C)OC(=O)N1CCC(N(Cc2ccccc2)C(=O)CNc2cccc3c2CCN(CC2CC2)C3)C1` (racemic) [Example 65, rac-3-{Benzyl-[2-(2-cyclopropylmethyl-1,2,3,4-tetrahydro-isoquinolin-5-ylamino)-acetyl]-amino}-pyrrolidine-1-carboxylic acid tert-butyl ester] returned an EC50 of 150 nM.
In turn, `O=C(CNc1cccc2c1CN(CC1CC1)CC2)N(CC(=O)N1CC(F)(F)C1)Cc1ncccc1C(F)(F)F` [compound 483, 2-(2-Cyclopropylmethyl-1,2,3,4-tetrahydro-isoquinolin-8-ylamino)-N-[2-(3,3-difluoro-azetidin-1-yl)-2-oxo-ethyl]-N-(3-trifluoromethyl-pyridin-2-ylmethyl)-acetamide] yielded an EC50 of 33 nM.
Compound `CCC(=O)N1CCc2cccc(OCC(=O)N(CCN(C)C)Cc3ccccc3)c2C1` [Example 206, N-Benzyl-N-(2-dimethylamino-ethyl)-2-(2-propionyl-1,2,3,4-tetrahydro-isoquinolin-8-yloxy)-acetamide] had an EC50 of 26 nM.
With `COCCN1CCc2c(CCC(=O)N(CCN(C)CCF)Cc3ccccc3C(F)(F)F)cccc2C1` [Example 342, N-{2-[(2-Fluoro-ethyl)-methyl-amino]-ethyl}-3-[2-(2-methoxy-ethyl)-1,2,3,4-tetrahydro-isoquinolin-5-yl]-N-(2-trifluoromethyl-benzyl)-propionamide] the figure was 110 nM.
Compound `CNCCN(Cc1ccccc1C(F)(F)F)C(=O)CNc1cccc2c1CCN(C(=O)OC)C2` [compound 394, 5-({[(2-Methylamino-ethyl)-(2-trifluoromethyl-benzyl)-carbamoyl]-methyl}-amino)-3,4-dihydro-1H-isoquinoline-2-carboxylic acid methyl ester] had an EC50 of 9 nM.
With `CN(C)CCN(Cc1ccccc1)C(=O)CNc1cccc2c1CN(C(=O)OC(C)(C)C)CC2` [Example 181, 8-({[Benzyl-(2-dimethylamino-ethyl)-carbamoyl]-methyl}-amino)-3,4-dihydro-1H-isoquinoline-2-carboxylic acid tert-butyl ester] the figure was 117 nM; with `CC(C)N(C)CCN(Cc1ccccc1C(F)(F)F)C(=O)CNc1cccc2c1CCN(CC1CC1)C2` [compound 449, 2-(2-Cyclopropylmethyl-1,2,3,4-tetrahydro-isoquinolin-5-ylamino)-N-[2-(isopropyl-methyl-amino)-ethyl]-N-(2-trifluoromethyl-benzyl)-acetamide], 1 nM.
To `C=CCN(C)CCN(Cc1ccccc1C(F)(F)F)C(=O)CCc1cccc2c1CCN(CC=C)C2` [Example 348, N-[2-(Allyl-methyl-amino)-ethyl]-3-(2-allyl-1,2,3,4-tetrahydro-isoquinolin-5-yl)-N-(2-trifluoromethyl-benzyl)-propionamide] belongs 13 nM; to `CCN1CCc2cccc(NCC(=O)N(CCN(C)C)Cc3ccccc3C(F)(F)F)c2C1` [compound 555, N-(2-Dimethylamino-ethyl)-2-(2-ethyl-1,2,3,4-tetrahydro-isoquinolin-8-ylamino)-N-(2-trifluoromethyl-benzyl)-acetamide], 6 nM; to `C=CCOC(=O)N1CCc2c(cccc2NCC(=O)N(CCNC)Cc2ccccc2C(F)(F)F)C1` [compound 397, 5-({[(2-Methylamino-ethyl)-(2-trifluoromethyl-benzyl)-carbamoyl]-methyl}-amino)-3,4-dihydro-1H-isoquinoline-2-carboxylic acid allyl ester], 35 nM.
`CCN1CCc2cccc(NCC(=O)N(CCNC)Cc3ccccc3)c2C1` [compound 443] had an EC50 of 147 nM. Against the preceding compound, the EC50 is about 4.2-fold higher.
In turn, `CCOC(=O)CN1CCc2c(cccc2NCC(=O)N(CCN(C)C)Cc2ncccc2C(F)(F)F)C1` [Example 369, [5-({[(2-Dimethylamino-ethyl)-(3-trifluoromethyl-pyridin-2-ylmethyl)-carbamoyl]-methyl}-amino)-3,4-dihydro-1H-isoquinolin-2-yl]-acetic acid ethyl ester] had a concentration for a half-maximal effect (EC50) of 92 nM.
To `CN(C)CCN(Cc1ncccc1C(F)(F)F)C(=O)CNc1cccc2c1CCN(C1CCOC1)C2` (racemic) [Example 365, rac-N-(2-Dimethylamino-ethyl)-2-[2-(tetrahydro-furan-3-yl)-1,2,3,4-tetrahydro-isoquinolin-5-ylamino]-N-(3-trifluoromethyl-pyridin-2-ylmethyl)-acetamide] belongs 35 nM; to `CC(C)(C)OC(=O)N1CCC(CN(Cc2ccccc2C(F)(F)F)C(=O)CNc2cccc3c2CCN(CC2CC2)C3)C1` (centres unmarked) [Example 253, 3-{[[2-(2-Cyclopropylmethyl-1,2,3,4-tetrahydro-isoquinolin-5-ylamino)-acetyl]-(2-trifluoromethyl-benzyl)-amino]-methyl}-pyrrolidine-1-carboxylic acid tert-butyl ester], 42 nM.
With `COCCN1CCc2c(CCC(=O)N(CCC(C)(C)O)Cc3ccccc3C(F)(F)F)cccc2C1` [Example 344, N-(3-Hydroxy-3-methyl-butyl)-3-[2-(2-methoxy-ethyl)-1,2,3,4-tetrahydro-isoquinolin-5-yl]-N-(2-trifluoromethyl-benzyl)-propionamide], it took 438 nM to reach a half-maximal effect (EC50).
In turn, `CN(C)CCN(Cc1ccccc1C(F)(F)F)C(=O)CNc1cccc2c1CN(CC1CC1)CC2` [compound 475] returned an EC50 of 121 nM.
Compound `CN(C)CCN(Cc1cncc(Cl)c1)C(=O)CNc1cccc2c1CCN(CC1CC1)C2` [Example 262, N-(5-Chloro-pyridin-3-ylmethyl)-2-(2-cyclopropylmethyl-1,2,3,4-tetrahydro-isoquinolin-5-ylamino)-N-(2-dimethylamino-ethyl)-acetamide] came in with a half-maximal effective concentration (EC50) of 62 nM.
Take `CN(C)CCN(Cc1ccccc1C(F)(F)F)C(=O)COc1cccc2c1CCN(CC1CC1)C2` [compound 174, 2-(2-Cyclopropylmethyl-1,2,3,4-tetrahydro-isoquinolin-5-yloxy)-N-(2-dimethylamino-ethyl)-N-(2-trifluoromethyl-benzyl)-acetamide]: the 50% effective concentration (EC50) turned out to be 0.8 nM.
To `C=CCN1CCc2cccc(CCC(=O)N(CCN(C)C)Cc3ccccc3C(F)(F)F)c2C1` [compound 468, 3-(2-Allyl-1,2,3,4-tetrahydro-isoquinolin-8-yl)-N-(2-dimethylamino-ethyl)-N-(2-trifluoromethyl-benzyl)-propionamide] belongs 10 nM; to `COc1ccc(CCN(CCN(C)C)C(=O)CNc2cccc3c2CCN(CC2CC2)C3)cc1OC` [Example 59, 2-(2-Cyclopropylmethyl-1,2,3,4-tetrahydro-isoquinolin-5-ylamino)-N-[2-(3,4-dimethoxy-phenyl)-ethyl]-N-(2-dimethylamino-ethyl)-acetamide], 147 nM; to `CCN1Cc2c(cccc2NCC(=O)N(CCN(C)C)Cc2ccccc2C(F)(F)F)CC1=O` [compound 543], 84 nM.
